Laboratory results reported in patent publication US20100267561A1, “HERBICIDAL PYRIDAZINONE DERIVATIVES” (priority 2007, published 2010).

Columns and labels:
Assay in all cases: Test E pre-/postemergence plant response
Format in all cases: in vivo
Conditions in all cases: scale 0 to 100
[1] = tested on: Italian ryegrass (Lolium multiflorum)
Outline: (§1)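 Seeds were planted and treated preemergence with compound formulated in a non-phytotoxic solvent mixture containing surfactant; postemergence sprays in the same formulation went onto plants 2 to 18 cm tall (1- to 4-leaf stage). After 14 to 21 days in a greenhouse, injury versus untreated controls was rated visually, 0 (no effect) to 100 (complete control).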

[2] = tested on: dallisgrass (Paspalum dilatatum)
Outline: as §1

[3] = tested on: quackgrass (Elytrigia repens)
Outline: as §1

[4] = tested on: broadleaf signalgrass (Brachiaria platyphylla)
Outline: as §1

[5] = tested on: johnsongrass (Sorghum halepense)
Outline: as §1

[6] = tested on: large crabgrass (Digitaria sanguinalis)
Outline: as §1

[7] = tested on: green foxtail (Setaria viridis)
Outline: as §1

[8] = tested on: common mallow (Malva sylvestris)
Outline: as §1

[9] = tested on: barnyardgrass (Echinochloa crus-galli)
Outline: as §1

[10] = tested on: pitted morningglory (Ipomoea lacunosa)
Outline: as §1

[11] = tested on: surinam grass (Brachiaria decumbens)
Outline: as §1

[12] = tested on: guineagrass (Panicum maximum)
Outline: as §1

Cc1cc(-c2ccc(Cl)cc2)nn1-c1c(OS(=O)(=O)c2ccccc2)cnn(C)c1=O [Compound 35]
15: Plant response rating, Foxtail, Green ([7]; 8 g ai/ha, Preemergence)
40: Plant response rating, Dallisgrass ([2]; 16 g ai/ha, Preemergence) | Plant response rating, Quackgrass ([3]; 31 g ai/ha, Preemergence) | Plant response rating, Quackgrass ([3]; Postemergence, 62 g ai/ha) | Plant response rating, Johnsongrass ([5]; Postemergence, 8 g ai/ha) | Plant response rating, Foxtail, Green ([7]; Postemergence, 8 g ai/ha) | Plant response rating, Barnyardgrass ([9]; 8 g ai/ha, Preemergence)
10: Plant response rating, Quackgrass ([3]; Postemergence, 16 g ai/ha)
90: Plant response rating, Dallisgrass ([2]; 31 g ai/ha, Preemergence) | Plant response rating, Dallisgrass ([2]; 62 g ai/ha, Preemergence) | Plant response rating, Johnsongrass ([5]; 62 g ai/ha, Preemergence) | Plant response rating, Foxtail, Green ([7]; 31 g ai/ha, Preemergence) | Plant response rating, Surinam Grass ([11]; Postemergence, 62 g ai/ha)
65: Plant response rating, Foxtail, Green ([7]; Postemergence, 31 g ai/ha)
20: Plant response rating, Ryegrass, Italian ([1]; Postemergence, 8 g ai/ha) | Plant response rating, Ryegrass, Italian ([1]; Postemergence, 16 g ai/ha) | Plant response rating, Quackgrass ([3]; 16 g ai/ha, Preemergence) | Plant response rating, Crabgrass, Large ([6]; 8 g ai/ha, Preemergence) | Plant response rating, Crabgrass, Large ([6]; 16 g ai/ha, Preemergence)
98: Plant response rating, Ryegrass, Italian ([1]; 16 g ai/ha, Preemergence) | Plant response rating, Johnsongrass ([5]; Postemergence, 62 g ai/ha) | Plant response rating, Foxtail, Green ([7]; 62 g ai/ha, Preemergence)
75: Plant response rating, Signalgrass ([4]; Postemergence, 31 g ai/ha) | Plant response rating, Johnsongrass ([5]; 16 g ai/ha, Preemergence) | Plant response rating, Crabgrass, Large ([6]; Postemergence, 31 g ai/ha) | Plant response rating, Foxtail, Green ([7]; Postemergence, 62 g ai/ha) | Plant response rating, Barnyardgrass ([9]; Postemergence, 16 g ai/ha) | Plant response rating, Surinam Grass ([11]; Postemergence, 16 g ai/ha) | Plant response rating, Guineagrass ([12]; Postemergence, 8 g ai/ha) | Plant response rating, Guineagrass ([12]; Postemergence, 16 g ai/ha)
50: Plant response rating, Dallisgrass ([2]; Postemergence, 31 g ai/ha) | Plant response rating, Quackgrass ([3]; 62 g ai/ha, Preemergence) | Plant response rating, Johnsongrass ([5]; Postemergence, 16 g ai/ha) | Plant response rating, Crabgrass, Large ([6]; Postemergence, 8 g ai/ha)
60: Plant response rating, Ryegrass, Italian ([1]; Postemergence, 31 g ai/ha) | Plant response rating, Dallisgrass ([2]; Postemergence, 62 g ai/ha) | Plant response rating, Signalgrass ([4]; Postemergence, 8 g ai/ha) | Plant response rating, Crabgrass, Large ([6]; Postemergence, 16 g ai/ha) | Plant response rating, Foxtail, Green ([7]; Postemergence, 16 g ai/ha) | Plant response rating, Barnyardgrass ([9]; Postemergence, 8 g ai/ha)
70: Plant response rating, Signalgrass ([4]; Postemergence, 16 g ai/ha) | Plant response rating, Johnsongrass ([5]; Postemergence, 31 g ai/ha) | Plant response rating, Surinam Grass ([11]; Postemergence, 8 g ai/ha)
100: Plant response rating, Ryegrass, Italian ([1]; 31 g ai/ha, Preemergence) | Plant response rating, Ryegrass, Italian ([1]; 62 g ai/ha, Preemergence) | Plant response rating, Signalgrass ([4]; 31 g ai/ha, Preemergence) | Plant response rating, Signalgrass ([4]; 62 g ai/ha, Preemergence) | Plant response rating, Signalgrass ([4]; Postemergence, 62 g ai/ha) | Plant response rating, Crabgrass, Large ([6]; 62 g ai/ha, Preemergence) | Plant response rating, Barnyardgrass ([9]; 62 g ai/ha, Preemergence) | Plant response rating, Barnyardgrass ([9]; Postemergence, 31 g ai/ha) | Plant response rating, Barnyardgrass ([9]; Postemergence, 62 g ai/ha) | Plant response rating, Surinam Grass ([11]; 31 g ai/ha, Preemergence) | Plant response rating, Surinam Grass ([11]; 62 g ai/ha, Preemergence) | Plant response rating, Guineagrass ([12]; 16 g ai/ha, Preemergence) | Plant response rating, Guineagrass ([12]; 31 g ai/ha, Preemergence) | Plant response rating, Guineagrass ([12]; 62 g ai/ha, Preemergence)
35: Plant response rating, Foxtail, Green ([7]; 16 g ai/ha, Preemergence)
95: Plant response rating, Ryegrass, Italian ([1]; Postemergence, 62 g ai/ha) | Plant response rating, Crabgrass, Large ([6]; 31 g ai/ha, Preemergence) | Plant response rating, Barnyardgrass ([9]; 31 g ai/ha, Preemergence) | Plant response rating, Surinam Grass ([11]; 16 g ai/ha, Preemergence) | Plant response rating, Guineagrass ([12]; Postemergence, 62 g ai/ha)
80: Plant response rating, Signalgrass ([4]; 16 g ai/ha, Preemergence) | Plant response rating, Johnsongrass ([5]; 31 g ai/ha, Preemergence) | Plant response rating, Crabgrass, Large ([6]; Postemergence, 62 g ai/ha) | Plant response rating, Barnyardgrass ([9]; 16 g ai/ha, Preemergence) | Plant response rating, Surinam Grass ([11]; Postemergence, 31 g ai/ha) | Plant response rating, Guineagrass ([12]; Postemergence, 31 g ai/ha)
30: Plant response rating, Dallisgrass ([2]; Postemergence, 8 g ai/ha) | Plant response rating, Dallisgrass ([2]; Postemergence, 16 g ai/ha) | Plant response rating, Quackgrass ([3]; Postemergence, 31 g ai/ha)
0: Plant response rating, Dallisgrass ([2]; 8 g ai/ha, Preemergence) | Plant response rating, Quackgrass ([3]; Postemergence, 8 g ai/ha) | Plant response rating, Mallow ([8]; 62 g ai/ha, Preemergence) | Plant response rating, Mallow ([8]; Postemergence, 8 g ai/ha) | Plant response rating, Mallow ([8]; Postemergence, 16 g ai/ha) | Plant response rating, Mallow ([8]; Postemergence, 31 g ai/ha) | Plant response rating, Mallow ([8]; Postemergence, 62 g ai/ha) | Plant response rating, Morningglory ([10]; 16 g ai/ha, Preemergence) | Plant response rating, Morningglory ([10]; 31 g ai/ha, Preemergence) | Plant response rating, Morningglory ([10]; 62 g ai/ha, Preemergence) | Plant response rating, Morningglory ([10]; Postemergence, 8 g ai/ha) | Plant response rating, Morningglory ([10]; Postemergence, 16 g ai/ha) | Plant response rating, Morningglory ([10]; Postemergence, 31 g ai/ha) | Plant response rating, Morningglory ([10]; Postemergence, 62 g ai/ha)
